From PMC7065771, “Dietary supplementation of recombinant antimicrobial peptide Epinephelus lanceolatus piscidin improves growth performance and immune response in Gallus gallus domesticus” (PLoS ONE, 2020) come the findings set out here.

One test relates to K. oxytoca. In words: Inhibition zone assay, flask culture supernatant. The format is cell-based, Klebsiella oxytoca. The conditions noted are these: flask culture supernatant after 5 days of methanol induction. The method, then:
All assays were performed in triplicate.
Fig 4 Antimicrobial activity of rEP produced in P. pastoris by flask and fermenter methods. (a) rEP concentration in the yeast culture supernatant before and after induction with methanol for 24 h to 120 h in flask culture. […] The marker “-” represents Gram-negative; “+” represents Gram-positive. (b) The antibacterial activity of rEP produced by the fermenter method. Yeast were induced with methanol from 24 h to 120 h in a fermenter.

Another test concerns Interferon-γ. In words: Serum ELISA after dietary supplementation. The format is in vivo, Gallus gallus domesticus. The note with it: 1.5% in diet, 35 days, compared to antibiotic group (P = 0.0043) and control group (P = 0.0073). The source says:
(§1) A total of 189 male or female 2-day-old G. g. domesticus were randomly assigned to seven dietary treatment groups, including rEP (0.75, 1.5, 3.0, 6.0 and 12%), spiraline-A (Juily Pharmaceutical Co., LTD. San Sia, Taipei Hsien, Taiwan), and basal diet groups. Each treatment group consisted of one cage with twenty-seven G. g. domesticus. The composition of the fodder is presented in S1b–S1d Table. The animals were allowed ad libitum access to fodder and water for the duration of the trial, beginning from 3 days of age. The total time of feeding was 35 days. The G. g. domesticus were maintained in a cage (animal container) with a constant environment (28.9–37.8°C, 12/12 h light-dark cycle). rEP fodder and fecal sewage were not directly discharged to the outside.
(§2) Body weight and survival rate were monitored daily during the experimental period. The weight gain, feed efficiency (FE), protein efficiency ratio (PER), and survival percentage were calculated. After 35 days of treatment, the G. g. domesticus were euthanized, blood samples were collected and serum was obtained by centrifugation (3000 ×g for 15 min at 4°C). Serum was kept at -80°C until analysis. Enzyme-linked immunosorbent assay (ELISA) was performed in accordance with the manufacturer’s standard procedures to determine the levels of immunological factors, including TNF-α, Interleukin-1β, Interleukin-6, Interleukin-10, Lysozyme, Immunoglobin-G (IgG), and Interferon-γ. Chicken serum samples were analyzed with ELISA kits from ABclonal Inc. (Woburn, MA, USA). After the reaction was completed, the optical density (OD) was measured at 450 nm on a microplate reader (SpectraMax® i3, Molecular Devices, Lagerhausstrasse, Wals, Austria).

For a further test, the system named is Interleukin-10. Description: Serum ELISA after dietary supplementation. The format is in vivo, Gallus gallus domesticus. The conditions noted are these: rEP-supplemented group, 35 days, compared to control group (P = 0.0341), not different than the antibiotic group.
Description: as §1, §2
A general note: ELISA stands for enzyme-linked immunosorbent assay.

The test system of the next test is Interleukin-6. Description: Serum ELISA after dietary supplementation. The format is in vivo, Gallus gallus domesticus. The conditions noted are these: dietary supplementation 35 days, between groups.
Description: as §1, §2

For “EFFIFHIIKGLFHAGRMIHGLVNRRRHRHHHHHH [rEP, recombinant His-tagged Epinephelus lanceolatus piscidin from Pichia pastoris, used as crude culture supernatant or spray-dried powder]”, the Inhibition zone result in the test with K. oxytoca is “large inhibition zones”. In addition, the “Serum IFN-γ level” value in the test with Interferon-γ is “significantly increased”. In addition, the “Serum IL-10 level” value in the test on Interleukin-10 is listed as “significantly higher”. Also, the “Serum IL-6 level” value in the test on Interleukin-6 is on record as “No significant changes”.
